The supplement of paper PMC10307832

Key:
Experiment in all cases: relative viability (nuclei count vs DMSO), 5 days (fraction); higher = more cells survive
VX-11e + Linsitinib = compound: CC1=CN=C(N=C1C2=CNC(=C2)C(=O)N[C@H](CO)C3=CC(=CC=C3)Cl)NC4=C(C=C(C=C4)F)Cl [VX-11e] + C[C@]1(O)C[C@@H](c2nc(-c3ccc4ccc(-c5ccccc5)nc4c3)c3c(N)nccn32)C1 [Linsitinib] (partner 1 µM)
Procedure, shortened: (§1)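 Relative viability was taken as the ratio of nuclei in treated wells to nuclei in vehicle wells. Lung cancer cell lines in 1536-well plates received compounds by pin tool one day after seeding, either one drug alone or a fixed anchor-drug dose plus five library-drug doses (not always all listed) in √10 steps. Nuclei were counted on 4× images after 5 days of treatment, and values are medians of duplicate plates.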

VX-11e + Lapatinib = compound: CC1=CN=C(N=C1C2=CNC(=C2)C(=O)N[C@H](CO)C3=CC(=CC=C3)Cl)NC4=C(C=C(C=C4)F)Cl [VX-11e] + CS(=O)(=O)CCNCc1ccc(-c2ccc3ncnc(Nc4ccc(OCc5cccc(F)c5)c(Cl)c4)c3c2)o1 [Lapatinib] (partner 2 µM)
Procedure, shortened: as §1

VX-11e + Alpelisib = compound: CC1=CN=C(N=C1C2=CNC(=C2)C(=O)N[C@H](CO)C3=CC(=CC=C3)Cl)NC4=C(C=C(C=C4)F)Cl [VX-11e] + Cc1nc(NC(=O)N2CCC[C@H]2C(N)=O)sc1-c1ccnc(C(C)(C)C(F)(F)F)c1 [Alpelisib] (partner 2 µM)
Procedure, shortened: as §1

VX-11e + OSI-027 = compound: CC1=CN=C(N=C1C2=CNC(=C2)C(=O)N[C@H](CO)C3=CC(=CC=C3)Cl)NC4=C(C=C(C=C4)F)Cl [VX-11e] + COc1cccc2cc(-c3nc([C@H]4CC[C@H](C(=O)O)CC4)n4ncnc(N)c34)[nH]c12 [OSI-027] (partner 0.5 µM)
Procedure, shortened: as §1

Cell Line | relative viability (VX-11e + Linsitinib; first compound 0.04 µM) | relative viability (VX-11e + Linsitinib; first compound 0.1265 µM) | relative viability (VX-11e + Linsitinib; first compound 0.4 µM) | relative viability (VX-11e + Linsitinib; first compound 1.265 µM) | relative viability (VX-11e + Linsitinib; first compound 4 µM) | relative viability (VX-11e + Lapatinib; first compound 0.04 µM) | relative viability (VX-11e + Lapatinib; first compound 0.1265 µM) | relative viability (VX-11e + Lapatinib; first compound 0.4 µM) | relative viability (VX-11e + Lapatinib; first compound 1.265 µM) | relative viability (VX-11e + Lapatinib; first compound 4 µM) | relative viability (VX-11e + Alpelisib; first compound 0.04 µM) | relative viability (VX-11e + Alpelisib; first compound 0.1265 µM) | relative viability (VX-11e + Alpelisib; first compound 0.4 µM) | relative viability (VX-11e + Alpelisib; first compound 1.265 µM) | relative viability (VX-11e + Alpelisib; first compound 4 µM) | relative viability (VX-11e + OSI-027; first compound 0.1265 µM) | relative viability (VX-11e + OSI-027; first compound 0.4 µM) | relative viability (VX-11e + OSI-027; first compound 1.265 µM) | relative viability (VX-11e + OSI-027; first compound 4 µM) | relative viability (VX-11e + OSI-027; first compound 0.04 µM)
HCC-78 | 0.584 | 0.5 | 0.541 | 0.403 | 0.382 | 1.37 | 0.884 | 0.944 | 0.384 | 0.526 | 0.313 | 0.348 | 0.381 | 0.276 | 0.312 | 0.364 | 0.395 | 0.376 | 0.393 | 
HCC-366 | 0.774 | 0.602 |  | 0.348 | 0.0744 | 1 | 0.971 |  | 0.879 | 0.759 | 0.446 | 0.431 |  | 0.239 | 0.0901 | 0.795 |  | 0.544 | 0.136 | 0.811
HCC-827 | 0.967 | 0.934 | 0.975 | 1.12 | 0.859 | 0.191 | 0.229 | 0.206 | 0.205 | 0.207 | 1.02 | 1.06 | 0.983 | 1.16 | 0.599 | 0.797 | 0.74 | 0.977 | 0.44 | 0.762
HOP-62 | 0.903 | 0.773 | 0.973 | 0.831 | 0.226 | 1.14 | 0.979 | 0.776 | 0.27 | 0.526 | 1.05 | 0.921 | 0.892 | 0.866 | 0.502 | 0.715 | 0.569 | 0.464 | 0.372 | 0.633
IA-LM | 0.694 | 0.516 | 0.469 | 0.132 | 0.142 | 0.71 | 0.945 | 0.853 | 0.17 | 0.126 | 0.855 | 0.734 | 0.756 | 0.387 | 0.143 |  |  |  |  | 
LC-2-ad | 0.831 | 0.852 | 0.787 | 0.572 | 0.508 | 0.929 | 0.792 | 0.881 | 0.399 | 0.547 | 0.913 | 0.867 | 0.778 | 0.714 | 0.585 | 0.534 | 0.363 | 0.584 | 0.466 | 0.73
LCLC-97TM1 | 0.158 | 0.172 |  | 0.203 | 0.116 | 1.09 | 0.8 |  | 0.226 | 0.171 | 0.285 | 0.253 |  | 0.192 | 0.12 | 0.274 | 0.287 | 0.418 | 0.175 | 0.494
LCLC-103H | 1.24 | 0.985 | 0.954 | 0.857 | 0.836 |  |  |  |  |  | 1.06 | 0.905 | 0.861 | 0.828 | 0.819 | 0.458 | 0.43 | 0.402 | 0.344 | 0.461
LK-2 | 0.774 | 0.672 | 0.555 | 0.205 | 0.313 |  | 0.832 | 0.812 | 0.522 | 0.439 |  | 1.06 | 1.21 |  | 0.543 | 0.187 | 0.146 | 0.153 | 0.17 | 0.163
LOU-NH91 | 0.919 | 0.952 |  | 0.946 | 0.733 | 0.66 | 0.673 |  | 0.565 | 0.667 | 0.692 | 0.689 |  | 0.691 | 0.538 | 0.67 | 0.497 | 0.611 | 0.541 | 0.622
LU99A | 0.539 | 0.456 | 0.623 | 0.42 | 0.207 | 1.03 | 0.913 | 0.864 | 0.253 | 0.235 | 0.423 | 0.38 | 0.574 | 0.209 | 0.175 | 0.324 | 0.249 | 0.286 | 0.256 | 0.257
LXF-289 | 0.995 | 0.88 | 0.958 | 0.801 | 0.686 | 0.895 | 0.869 | 0.879 | 0.772 | 0.634 | 1.05 | 0.962 | 0.961 | 0.942 | 0.695 | 0.58 | 0.174 | 0.517 | 0.358 | 0.686
NCI-H23 | 0.48 | 0.52 | 0.37 | 0.378 | 0.271 | 0.875 | 0.952 | 0.219 | 0.393 | 0.331 | 0.575 | 0.53 | 0.435 | 0.384 | 0.242 | 0.411 |  | 0.271 | 0.173 | 0.368
NCI-H441 | 0.542 | 0.584 |  | 0.657 | 0.419 |  |  |  |  |  | 0.804 | 0.709 |  | 0.977 | 0.633 | 0.502 |  | 0.518 | 0.417 | 0.519
NCI-H522 |  |  |  |  |  |  |  |  |  |  |  |  |  |  |  | 0.683 | 0.556 | 0.613 | 0.572 | 0.615
NCI-H1299 | 1.08 | 0.944 | 0.942 | 0.682 | 0.36 | 0.984 | 0.953 | 1.1 | 0.918 | 0.559 | 1.11 | 1.03 | 1.05 | 1.11 | 0.708 |  |  |  |  | 
NCI-H1648 |  |  |  |  |  |  |  |  |  |  |  |  |  |  |  | 0.238 | 0.29 | 0.245 | 0.241 | 0.273
NCI-H1650 |  |  |  |  |  | 0.76 | 0.626 | 0.204 | 0.289 | 0.444 |  |  |  |  |  | 0.534 |  | 0.402 | 0.307 | 0.592
NCI-H1703 | 0.294 | 0.655 |  | 0.748 | 0.502 | 1.49 | 1.18 |  | 1.08 | 0.791 | 0.303 | 0.401 | 0.303 | 0.444 | 0.294 |  |  |  |  | 
NCI-H2170 |  |  |  |  |  | 0.229 | 0.259 | 0.231 | 0.243 | 0.252 | 0.76 | 0.71 | 0.758 | 0.719 | 0.71 | 0.624 | 0.155 | 0.649 | 0.453 | 0.589
NCI-H2342 |  |  |  |  |  |  |  |  |  |  |  |  |  |  |  | 0.592 | 0.637 | 0.539 | 0.56 | 0.505
SW 900 |  |  |  |  |  |  |  |  |  |  |  |  |  |  |  | 0.448 | 0.12 | 0.304 | 0.246 | 0.276
